Assay results reported in article PMC10306110 (Cell, 2023).

Experiments:
C56BL/6J mice = assay: Elevated plus-maze assay; type: in vivo, mouse; conditions: ‘8219 and ‘8090 10 mg/kg/day for 10 days; paroxetine 10 mg/kg single
morphine-treated mice = assay: Naloxone-precipitated opioid withdrawal assay; type: in vivo, mouse; conditions: 10 mg/kg i.p.
[1] = test system: learned helpless C57BL/6J mice; assay: Elevated 8-arm radial maze; type: in vivo, mouse
[2] = test system: learned helpless C57BL/6J mice; assay: Learned helplessness: tail suspension; type: in vivo, mouse; conditions: for immobility upon treatment-withdrawal / anti-depressant-like activities in tail suspension: 40 mg/kg Ibo; for immobility upon treatment-withdrawal: 10 mg/kg Flx; for anti-depressant-like activities in tail suspension: 10 mg/kg Flx daily
[3] = test system: learned helpless C57BL/6J mice; assay: Elevated zero maze; type: in vivo, mouse; conditions: for locomotion in the zero maze versus vehicle: 5 mg/kg ‘8090, 40 mg/kg Ibo
[4] = test system: wild-type (WT) and VMAT2 heterozygous (HET) mice; assay: Tail suspension in VMAT2 mice; type: in vivo, mouse; conditions: for anti-depressant-like effects 24 h post-injection: VMAT2 HET, 2 mg/kg ‘8090, 0.5 mg/kg ‘8219, 20 mg/kg Flx, 30 mg/kg Ibo; for immobility times: acute (30 min), 20 mg/kg Flx versus vehicle, 30 mg/kg Ibo versus 1 mg/kg ‘8090 and 0.5 mg/kg ‘8219
[5] = test system: learned helpless C57BL/6J mice; assay: Learned helplessness: shock escape; type: in vivo, mouse; conditions: for shock-escape performance: 40 mg/kg Ibo, 10 mg/kg Flx
SERT-S277C = SERT-S277C (Rattus norvegicus, UniProt P31652, C109A/C15A/C21A/C357I/C622A/S277C); assay: Cys277 accessibility; type: biochemical
SERT [6] = target: T1, SERT (Rattus norvegicus, UniProt P31652); conditions: cited from earlier work
SERT-Y107C [7] = target: T2, SERT-Y107C (Rattus norvegicus, UniProt P31652, C109A/Y107C); conditions: cited from earlier work
[8] = test system: learned helpless C57BL/6J mice; assay: Learned helplessness: sucrose preference; type: in vivo, mouse; conditions: for overall sucrose preference at testing: 40 mg/kg Ibo
[9] = test system: learned helpless C57BL/6J mice; assay: Sensitivity to foot-shock; type: in vivo, mouse; conditions: days 13 and 22
[10] = test system: learned helpless C57BL/6J mice; assay: Open field motor activity; type: in vivo, mouse; conditions: day 12; 2 or 5 mg/kg ‘8090, 5 mg/kg ‘8219; 40 mg/kg Ibo, 10 mg/kg Flx
rSERT = rSERT (Rattus norvegicus, UniProt P31652); assay: [3H]5-HT transport into RBL cells or SERT-transfected HeLa cells; type: cell-based
SERT [11] = target: T1, SERT; assay: Efflux of accumulated [3H]5-HT induced by extracellular compounds; type: cell-based; conditions: saturating concentrations
hSERT = hSERT (Homo sapiens, UniProt P31645); type: cell-based
5-HT1A receptor = target: T3, 5-HT1A receptor (Homo sapiens, UniProt P08908); assay: GloSensor cAMP Gi agonist activity assay; type: cell-based; conditions: concentration-response
T3 sequence (P08908 1-422): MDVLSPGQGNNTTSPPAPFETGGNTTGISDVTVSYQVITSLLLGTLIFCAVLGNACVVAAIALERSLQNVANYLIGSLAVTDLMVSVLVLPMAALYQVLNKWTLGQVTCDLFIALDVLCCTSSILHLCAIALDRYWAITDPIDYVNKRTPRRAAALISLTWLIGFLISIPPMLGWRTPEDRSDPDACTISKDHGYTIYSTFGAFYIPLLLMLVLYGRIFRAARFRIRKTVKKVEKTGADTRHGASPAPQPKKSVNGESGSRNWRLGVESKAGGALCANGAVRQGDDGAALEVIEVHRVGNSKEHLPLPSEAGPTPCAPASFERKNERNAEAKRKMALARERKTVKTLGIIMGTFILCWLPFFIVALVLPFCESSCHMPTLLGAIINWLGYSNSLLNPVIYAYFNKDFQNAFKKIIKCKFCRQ

SERT [12] = target: T1, SERT; assay: [125I]β-CIT displacement binding in membranes from SERT-transfected HeLa cells
human NET = human NET (Homo sapiens, UniProt P23975); assay: Neurotransmitter transporter uptake assay, NET; conditions: read-out: Ki against NET; cell-based functional assay
[13] = Pharmacokinetics, brain exposure after i.p. dosing; type: in vivo; conditions: 10 mg/Kg intraperitoneal (i.p.), mouse
human DAT = human DAT (Homo sapiens, UniProt Q01959); assay: Neurotransmitter transporter uptake assay, DAT; conditions: read-out: Ki against DAT; cell-based functional assay
SERT-Y107C [14] = target: T2, SERT-Y107C; assay: Cys107 accessibility; type: cell-based; conditions: saturating concentration (10x KD)
[15] = presence of Na+, cocaine 10 µM, ibogaine 10 µM, ‘8219 0.05 µM, ‘8090 0.15 µM

Sequence of hSERT (P31645 whole entry): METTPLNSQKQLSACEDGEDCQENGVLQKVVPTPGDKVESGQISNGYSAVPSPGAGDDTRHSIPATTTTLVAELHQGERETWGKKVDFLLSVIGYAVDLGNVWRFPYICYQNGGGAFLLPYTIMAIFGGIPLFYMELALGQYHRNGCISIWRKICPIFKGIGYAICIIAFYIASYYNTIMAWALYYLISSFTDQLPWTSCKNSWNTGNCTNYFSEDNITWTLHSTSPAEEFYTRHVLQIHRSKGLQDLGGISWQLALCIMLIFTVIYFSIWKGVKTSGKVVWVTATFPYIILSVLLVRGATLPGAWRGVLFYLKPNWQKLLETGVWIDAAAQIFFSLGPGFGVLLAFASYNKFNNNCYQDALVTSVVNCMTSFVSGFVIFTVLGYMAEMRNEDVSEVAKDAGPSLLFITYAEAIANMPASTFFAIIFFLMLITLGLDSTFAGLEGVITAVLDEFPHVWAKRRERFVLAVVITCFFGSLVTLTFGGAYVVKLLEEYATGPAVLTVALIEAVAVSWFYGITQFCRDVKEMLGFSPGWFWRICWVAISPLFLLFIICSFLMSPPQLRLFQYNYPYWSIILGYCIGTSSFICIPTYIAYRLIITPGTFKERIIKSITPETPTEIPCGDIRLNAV
Sequence of human NET (P23975 whole entry): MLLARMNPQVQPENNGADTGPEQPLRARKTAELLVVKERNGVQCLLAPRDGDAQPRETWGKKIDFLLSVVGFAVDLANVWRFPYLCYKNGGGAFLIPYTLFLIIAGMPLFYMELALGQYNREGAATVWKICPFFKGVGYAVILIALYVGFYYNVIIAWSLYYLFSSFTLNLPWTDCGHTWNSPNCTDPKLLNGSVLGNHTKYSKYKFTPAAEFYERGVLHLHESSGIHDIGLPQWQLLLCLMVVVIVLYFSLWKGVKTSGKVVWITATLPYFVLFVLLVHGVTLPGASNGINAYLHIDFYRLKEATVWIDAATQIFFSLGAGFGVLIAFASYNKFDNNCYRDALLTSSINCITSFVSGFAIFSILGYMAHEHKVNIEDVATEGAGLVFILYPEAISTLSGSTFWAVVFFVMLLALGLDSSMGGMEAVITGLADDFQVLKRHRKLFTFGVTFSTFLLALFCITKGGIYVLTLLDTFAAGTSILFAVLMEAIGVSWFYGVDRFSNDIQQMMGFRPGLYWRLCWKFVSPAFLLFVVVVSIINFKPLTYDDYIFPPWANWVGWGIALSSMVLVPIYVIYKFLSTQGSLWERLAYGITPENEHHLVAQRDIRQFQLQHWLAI
Sequence of human DAT (Q01959 whole entry): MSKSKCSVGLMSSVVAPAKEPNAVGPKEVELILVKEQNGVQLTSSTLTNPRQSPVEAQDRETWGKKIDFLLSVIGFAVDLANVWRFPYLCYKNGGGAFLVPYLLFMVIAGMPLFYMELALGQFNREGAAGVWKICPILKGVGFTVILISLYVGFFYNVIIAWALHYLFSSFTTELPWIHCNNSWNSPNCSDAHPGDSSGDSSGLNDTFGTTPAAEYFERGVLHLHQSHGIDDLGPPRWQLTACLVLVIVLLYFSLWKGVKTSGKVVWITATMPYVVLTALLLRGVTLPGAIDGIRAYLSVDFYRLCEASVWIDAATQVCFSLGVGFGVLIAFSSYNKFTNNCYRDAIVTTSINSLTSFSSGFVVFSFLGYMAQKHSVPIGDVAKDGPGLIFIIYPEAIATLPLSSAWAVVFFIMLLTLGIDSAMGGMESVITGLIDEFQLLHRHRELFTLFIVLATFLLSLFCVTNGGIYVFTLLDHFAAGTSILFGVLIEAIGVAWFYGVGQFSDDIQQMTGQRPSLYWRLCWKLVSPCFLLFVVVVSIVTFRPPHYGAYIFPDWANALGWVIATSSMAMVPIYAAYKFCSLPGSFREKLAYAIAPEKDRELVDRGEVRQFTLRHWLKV

Compound: Fc1ccc([C@@H]2CCNC[C@H]2COc2ccc3c(c2)OCO3)cc1 [paroxetine, reference compound]
- open arm entries and time compared to vehicle (C56BL/6J mice): spent more time exploring the open arms
- naloxone-precipitated morphine withdrawal symptoms (morphine-treated mice): significantly reduced naloxone-precipitated jumps and rearings

Compound: ibogaine
- locomotion in the radial maze ([1]; 40 mg/kg Ibo): suppressed locomotion
- immobility upon treatment-withdrawal [2]: immobility was enhanced
- anti-depressant-like activities in tail suspension [2]: transient
- locomotion in the zero maze versus vehicle [3]: decreased
- anti-depressant-like effects 24 h post-injection [4]: effects were lost
- immobility times ([4]; WT): increased
- shock-escape performance [5]: improve shock-escape performance
- Cys277 reactivity (cytoplasmic pathway) versus control (SERT-S277C; [15]): dramatically increased Cys277 reactivity
- effect of Cl− on binding to SERT (SERT [6]): independent of Cl^−
- effect of Na+ on binding to SERT (SERT [6]): inhibited by Na^+
- Cys107 accessibility (extracellular pathway) (SERT-Y107C [7]): decreases its accessibility
- overall sucrose preference at testing ([8]; 10 mg/kg Flx daily): increased overall sucrose preference

Compound: CNCCC(Oc1ccc(C(F)(F)F)cc1)c1ccccc1 (stereo not shown) [Flx, fluoxetine]
- arm entries before repeating a first entry compared to Ibo and vehicle mice ([1]; 10 mg/kg Flx, ANCOVA): entered more arms before repeating a first entry
- immobility upon treatment-withdrawal [2]: immobility was enhanced
- anti-depressant-like activities in tail suspension [2]: transient
- open area time compared to Ibo and vehicle controls ([3]; 10 mg/kg Flx): increased open area time
- anti-depressant-like effects 24 h post-injection [4]: maintained
- immobility times ([4]; WT): increased
- shock-escape performance [5]: improve shock-escape performance
- reactivity to foot-shock [9]: do not affect reactivity to foot-shock
- locomotion in the open field [10]: No locomotor differences were found
- sucrose preference over vehicle controls on day −2 ([8]; 10 mg/kg Flx daily): enhanced preference for sucrose
- overall sucrose preference at testing ([8]; 10 mg/kg Flx daily): increased overall sucrose preference

Compound: COC(=O)[C@H]1[C@@H](OC(=O)c2ccccc2)C[C@@H]2CC[C@H]1N2C [cocaine, reference compound]
- Cys277 reactivity (cytoplasmic pathway) versus control (SERT-S277C; [15]): decreased Cys277 reactivity
- Cys107 accessibility (extracellular pathway) (SERT-Y107C [7]): renders it more accessible

Compound: Fc1ccc(-c2csc(N3CCNCC3)n2)cc1 [‘8090]
- arm entries before a second repeated entry versus vehicle ([1]; 2 mg/kg ‘8090 or 5 mg/kg ‘8219, day 9): entered more arms before making a second repeated entry
- Vmax for 5-HT transport in presence of inhibitor (rSERT; 0.15 μM ‘8219, 0.7 μM ‘8090, HeLa cells transfected with rSERT, control 1.7 ± 0.25): 0.69 ± 0.1 pmol/m/well
- type of inhibition of 5-HT influx (rSERT; decreased Vmax with minimal effect on KM): non-competitive inhibition
- SERT substrate activity (stimulation of [3H]5-HT efflux) (SERT [11]): not SERT substrates
- dissociation rate (hSERT; HEK-293 cells expressing hSERT pre-incubated with 50 nM ‘8219 or 75 nM ‘8090, washout): 1.82 ± 0.09 × 10^−3 s^−1
- half time for equilibration of binding (hSERT; at concentrations giving half-maximal inhibition, calculated): less than 7 minutes
- immobility times on days 0, 1, and 3 ([2]; 2 or 5 mg/kg ‘8090, 5 mg/kg ‘8219 daily): reduced
- locomotion in the zero maze versus vehicle [3]: increased
- time in and entry into the open areas versus vehicle ([3]; 2 or 5 mg/kg ‘8090, 5 mg/kg ‘8219, day 6): spent more time and entered the open areas more readily than vehicle-treated mice
- Gi agonist activity at 5-HT1A relative to reference agonist 5-HT (5-HT1A receptor): about 6%
- anti-depressant-like effects 24 h post-injection [4]: maintained
- immobility 24 h post-injection ([4]; WT, 1 mg/kg compared to 0.5 mg/kg): significantly decreased immobility
- shock-escape performance on day 23 versus controls ([5]; 1 mg/kg ‘8090 group): higher
- shock-escape performance (numbers of escapes) on days 10 and 23 ([5]; 5 mg/kg): increased over vehicle
- open arm entries and time compared to vehicle (C56BL/6J mice): increased the percentage of entries into and the time spent exploring the open arms
- Ki (SERT [12]; displacement of [125I]β-CIT): 0.014 µM
- increase of inhibitory potency (binding) by Na+ (SERT [12]; displacement of [125I]β-CIT): 15 fold
- Kd (SERT [12]; read-out: KD values used for kon calculation): 0.015 µM
- Ki (human NET): 10 µM
- brain Cmax [13]: 12000 ng/g
- half-life ([13]; brain): 44.3 min
- reactivity to foot-shock [9]: do not affect reactivity to foot-shock
- Cys277 reactivity (cytoplasmic pathway) versus control (SERT-S277C; absence of Na+ (replaced by NMDG), 2 µM): had no influence on the pathway
- Cys277 reactivity (cytoplasmic pathway) versus control (SERT-S277C; [15]): decreased reactivity slightly
- locomotion in the open field [10]: no effects were observed
- Ki (human DAT): 6.6 µM
- Cys107 reactivity (extracellular pathway) (SERT-Y107C [14]): decreased Cys107 reactivity
- sucrose preference compared to vehicle ([8]; daily i.p. dosing, 2 or 5 mg/kg ‘8090, 5 mg/kg ‘8219): significant preference for sucrose compared to vehicle
